# Tests used:
# PI3-Kα = PI3-Kα (Mus musculus (Mouse), UniProt P42337); test: PI3-Kα Biochemical Assay (fluorescence polarization kinase assay)
# Outline: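 Co-expressed mouse p110/p85 PI3-Kα (4 nM stock) acting on PI(4,5)P2 (60 μM stock) with ATP/MgCl2 in HEPES pH 7.4 buffer, 35 min at room temperature, then EDTA stop. PI(3,4,5)P3 product detected by displacement of TAMRA-PIP3 from Grip1 PH domain (FP, 535/580 nm). IC50 from sigmoidal fit of % inhibition.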
# [1] = test system: PI3-K in BT20 cells (phosphorylation of AKT at serine 473); test: PI3-Kα Cellular Assay (AKT Ser473 phosphorylation ELISA in BT20 cells); assay type: cell-based, human; conditions: Homo sapiens, BT-20, pAKT Ser473 ELISA, 1 hour incubation
# Outline: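 Cells seeded overnight in 0.5% FBS, then exposed 1 h at 37 °C to an 11-concentration 1:3 dilution series, in duplicate.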
# PI3-Kα, sequence (P42337 whole entry, the tested form may be a part): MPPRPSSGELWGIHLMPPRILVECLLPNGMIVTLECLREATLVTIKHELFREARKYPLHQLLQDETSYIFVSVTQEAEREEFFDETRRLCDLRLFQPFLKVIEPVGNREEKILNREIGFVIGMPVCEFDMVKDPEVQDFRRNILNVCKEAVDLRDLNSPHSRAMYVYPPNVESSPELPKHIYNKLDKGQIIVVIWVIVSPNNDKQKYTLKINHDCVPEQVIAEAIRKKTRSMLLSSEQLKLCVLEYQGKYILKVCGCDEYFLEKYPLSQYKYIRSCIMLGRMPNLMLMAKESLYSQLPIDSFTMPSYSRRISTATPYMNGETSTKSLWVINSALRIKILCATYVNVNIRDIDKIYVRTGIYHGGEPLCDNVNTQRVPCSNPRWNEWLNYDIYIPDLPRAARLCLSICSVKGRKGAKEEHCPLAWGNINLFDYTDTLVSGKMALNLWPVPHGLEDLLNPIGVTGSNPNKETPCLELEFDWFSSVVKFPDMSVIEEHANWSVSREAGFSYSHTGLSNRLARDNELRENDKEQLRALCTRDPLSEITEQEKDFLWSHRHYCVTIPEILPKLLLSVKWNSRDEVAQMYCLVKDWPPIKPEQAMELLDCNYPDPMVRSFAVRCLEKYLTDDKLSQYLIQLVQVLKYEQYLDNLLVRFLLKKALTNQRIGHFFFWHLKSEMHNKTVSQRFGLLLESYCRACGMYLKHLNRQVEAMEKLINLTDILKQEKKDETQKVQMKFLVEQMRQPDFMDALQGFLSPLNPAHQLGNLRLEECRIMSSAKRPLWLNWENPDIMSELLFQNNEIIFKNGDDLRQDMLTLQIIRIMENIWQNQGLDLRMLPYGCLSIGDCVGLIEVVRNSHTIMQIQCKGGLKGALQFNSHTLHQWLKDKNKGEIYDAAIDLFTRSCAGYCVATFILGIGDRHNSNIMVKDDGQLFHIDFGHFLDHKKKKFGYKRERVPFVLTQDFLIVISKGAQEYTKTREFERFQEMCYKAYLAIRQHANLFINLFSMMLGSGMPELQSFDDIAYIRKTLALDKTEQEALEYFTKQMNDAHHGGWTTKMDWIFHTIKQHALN
# PI3-Kα, sequence (P26450 whole entry partner, the tested form may be a part): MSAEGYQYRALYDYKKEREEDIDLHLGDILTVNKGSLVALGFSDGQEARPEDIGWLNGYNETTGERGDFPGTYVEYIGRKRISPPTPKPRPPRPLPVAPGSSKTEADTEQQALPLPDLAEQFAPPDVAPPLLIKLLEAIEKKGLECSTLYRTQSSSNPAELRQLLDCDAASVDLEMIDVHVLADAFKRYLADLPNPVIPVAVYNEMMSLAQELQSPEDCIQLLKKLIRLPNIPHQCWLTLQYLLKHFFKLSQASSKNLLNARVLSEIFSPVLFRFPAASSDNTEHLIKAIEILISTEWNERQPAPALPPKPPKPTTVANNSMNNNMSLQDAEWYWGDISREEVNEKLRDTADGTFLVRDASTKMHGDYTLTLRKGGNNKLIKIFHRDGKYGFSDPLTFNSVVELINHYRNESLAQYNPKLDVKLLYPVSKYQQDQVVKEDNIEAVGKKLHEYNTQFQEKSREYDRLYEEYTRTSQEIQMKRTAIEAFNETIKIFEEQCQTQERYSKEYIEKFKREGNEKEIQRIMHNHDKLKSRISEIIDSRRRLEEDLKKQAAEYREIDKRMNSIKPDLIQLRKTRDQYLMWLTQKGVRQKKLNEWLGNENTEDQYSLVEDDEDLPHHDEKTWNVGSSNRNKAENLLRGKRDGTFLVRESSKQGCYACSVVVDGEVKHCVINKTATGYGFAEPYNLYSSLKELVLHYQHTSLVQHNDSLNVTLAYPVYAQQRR
Structure (SMILES),IC50 (PI3-Kα),IC50 [1]
"Cc1nc(N)nc2c1cc(-c1cc[nH]n1)c(=O)n2[C@H]1CC[C@H](O)CC1 [Compound 186, 2-Amino-8-((trans)-4-hydroxycyclohexyl)-4-methyl-6-(1H-pyrazol-3-yl)pyrido[2,3-d]pyrimidin-7(8H)-one]",10 nM,25.2 nM
"CO[C@H]1CC[C@H](n2c(=O)c(-c3cc[nH]n3)cc3c(C)nc(N)nc32)CC1 [Compound 187, 2-amino-8-(trans-4-methoxycyclohexyl)-4-methyl-6-(1H-pyrazol-3-yl)pyrido[2,3-d]pyrimidin-7(8H)-one]",9.5 nM,17.2 nM
"Cc1nc(N)nc2c1cc(-c1ccc(OC(C)C)nc1)c(=O)n2[C@H]1CC[C@H](O)CC1 [Compound 188, 2-amino-8(trans-4-hydroxycyclohexyl)-6-(6-isopropoxypyridin-3-yl)-4-methylpyrido[2,3-d]pyrimidin-7(8H)-one]",9.4 nM,71.8 nM
"CCOc1ccc(-c2cc3c(C)nc(N)nc3n([C@H]3CC[C@H](O)CC3)c2=O)cn1 [Compound 189, 2-amino-6-(6-ethoxypyridin-3-yl)-8-(trans-4-hydroxycyclohexyl)-4-methylpyrido[2,3-d]pyrimidin-7(8H)-one]",2.7 nM,21.2 nM
"Cc1nc(N)nc2c1cc(-c1ccc(C#N)nc1)c(=O)n2[C@H]1CC[C@H](O)CC1 [Compound 190, 5-[2-amino-8-(trans-4-hydroxycyclohexyl)-4-methyl-7-oxo-7,8-dihydropyrido[2,3-d]pyrimidin-6-yl]pyridine-2-carbonitrile]",470 nM,2690 nM
"Cc1nc(N)nc2c1cc(-c1cnn(C(=O)OC(C)(C)C)c1)c(=O)n2N1CCCC1 [Compound 192, Tert-butyl-4-(2-amino-4-methyl-7-oxo-8-(pyrrolidin-1-yl)-7,8-dihydropyrido[2,3-d]pyrimidin-6-yl)-1H-pyrazole-1-carboxylate]",93 nM,5.08 nM
"Cc1nc(N)nc2c1cc(-c1cn[nH]c1)c(=O)n2CC(F)(F)F [Compound 197, 2-amino-4-methyl-6-(1H-pyrazol-4-yl)-8-(2,2,2-trifluoroethyl)pyrido[2,3-d]pyrididin-7(8H)-one]",188 nM,236 nM
"COc1ccc(-c2cc3c(C)nc(N)nc3n(CC(F)(F)F)c2=O)cn1 [Compound 198, 2-amino-6-(6-methoxypyridin-3-yl)-4-methyl-8-(2,2,2-trifluoroethyl)pyrido[2,3-d]pyrimidin-7(8H)-one]",130 nM,262 nM
"Cc1nc(N)nc2c1cc(-c1cn[nH]c1)c(=O)n2C1CCOCC1 [Compound 199, 2-amino-4-methyl-6-(1H-pyrazol-4-yl)-8-(tetrahydro-2H-pyran-4-yl)pyrido[2,3-d]pyrimidin-7(8H)-one]",18.5 nM,19.9 nM
"Cc1nc(N)nc2c1cc(-c1cnc3[nH]ccc3c1)c(=O)n2C1CCOCC1 [Compound 201, 2-amino-4-methyl-6-(1H-pyrrolo[2,3-b]pyridin-5-yl)-8-(tetrahydro-2H-pyran-4-yl)pyrido[2,3-d]pyrimidin-7(8H)-one]",3.7 nM,15.3 nM
"Cc1nc(N)nc2c1cc(Br)c(=O)n2C1CCOC1 (stereo not drawn) [Compound 202, 2-amino-6-bromo-4-methyl-8-(tetrahydrofuran-3-yl)pyrido[2,3-d]pyrimidin-7(8H)-one]",230 nM,1670 nM
Cc1nc(N)nc2c1cc(-c1cn[nH]c1)c(=O)n2C1CCOC1 (stereo not drawn) [Compound 203],20 nM,25.8 nM
"Cc1nc(N)nc2c1cc(-c1cnc3[nH]ccc3c1)c(=O)n2C1CCC1 [Compound 207, 2-amino-8-cyclobutyl-4-methyl-6-(1H-pyrrolo[2,3-d]pyridin-5-yl)pyrido[2,3-d]pyrimidin-7(8H)-one]",2 nM,11.9 nM
"COc1ccc(-c2cc3c(C)nc(N)nc3n(C(C)C)c2=O)cn1 [Compound 209, 2-amino-8-isopropyl-6-(6-methoxypyridin-3-yl)-4-methylpyrido[2,3-d]pyrimidin-7(8H)-one]",11 nM,64 nM
"Cc1nc(N)nc2c1cc(-c1cnc3[nH]ccc3c1)c(=O)n2C(C)C [Compound 210, 2-amino-8-isopropyl-4-methyl-6-(1H-pyrrolo[2,3-d]pyridin-5-yl)pyrido[2,3-d]pyrimidin-7(8H)-one]",2.3 nM,6.77 nM
"Cc1nc(N)nc2c1cc(-c1cnc3[nH]ccc3c1)c(=O)n2C1CC1 [Compound 213, 2-amino-8-cyclopropyl-4-methyl-6-(1H-pyrrolo[2,3-b]pyridin-5-yl)pyrido[2,3-d]pyrimidin-7(8H)-one]",17 nM,138 nM
"CNc1nc(C)c2cc(Br)c(=O)n(CC3CCOC3)c2n1 (stereo not drawn) [Compound 214, 6-bromo-4-methyl-2-(methylamino)-8-((tetrahydrofuran-3-yl)methyl)pyrido[2,3-d]pyrimidin-7(8H)-one]",48 nM,594 nM

Structure (SMILES),IC50 (PI3-Kα),IC50 [1]
"CNc1nc(C)c2cc(-c3cn[nH]c3)c(=O)n(CC3CCOC3)c2n1 (stereo not drawn) [Compound 215, 4-methyl-2-(methylamino)-6-(1H-pyrazol-4-yl)-8-((tetrahydrofuran-3-yl)methyl)pyrido[2,3-d]pyrimidin-7(8H)-one]",6 nM,22.1 nM
"CNc1nc(C)c2cc(-c3ccc(OC)nc3)c(=O)n(CC3CCOC3)c2n1 (stereo not drawn) [Compound 216, 6-(6-methoxypyridin-3-yl)-4-methyl-2-(methylamino)-8-((tetrahydrofuran-3-yl)methyl)pyrido[2,3-d]pyrimidin-7(8H)-one]",4.6 nM,45.6 nM
"CNc1nc(C)c2cc(-c3cnc4[nH]ccc4c3)c(=O)n(CC3CCOC3)c2n1 (stereo not drawn) [Compound 217, 4-methyl-2-(methylamino)-6-(1H-pyrrolo[2,3-b]pyridin-5-yl)-8-((tetrahydrofuran-3-yl)methyl)pyrido[2,3-d]pyrimidin-7(8H)-one]",1.6 nM,13.5 nM
"Cc1nc(N)nc2c1cc(Br)c(=O)n2CC1CCOC1 (stereo not drawn) [Compound 218, 2-amino-6-bromo-4-methyl-8-((tetrahydrofuran-3-yl)methyl)pyrido[2,3-d]pyrimidin-7(8H)-one]",94 nM,1020 nM
"Cc1nc(N)nc2c1cc(-c1cnc3[nH]ccc3c1)c(=O)n2CC1CCOC1 (stereo not drawn) [Compound 221, 2-amino-4-methyl-6-(1H-pyrrolo[2,3-b]pyridin-5-yl)-8-((tetrahydrofuran-3-yl)methyl)pyrido[2,3-d]pyrimidin-7(8H)-one]",2.8 nM,57.8 nM
"Cc1nc(N)nc2c1cc(Br)c(=O)n2CC1CCCO1 (stereo not drawn) [Compound 222, 2-amino-6-bromo-4-methyl-8-((tetrahydrofuran-2-yl)methyl)pyrido[2,3-d]pyrimidin-7(8H)-one]",100 nM,2130 nM
"COc1ccc(-c2cc3c(C)nc(N)nc3n(CC3CCCO3)c2=O)cn1 (stereo not drawn) [Compound 224, 2-amino-6-(6-methoxypyridin-3-yl)-4-methyl-8-((tetrahydrofuran-2-yl)methyl)pyrido[2,3-d]pyrimidin-7(8H)-one]",21 nM,120 nM
"Cc1nc(N)nc2c1cc(-c1cnc3[nH]ccc3c1)c(=O)n2CC1CCCO1 (stereo not drawn) [Compound 225, 2-amino-4-methyl-6-(1H-pyrrolo[2,3-b]pyridin-5-yl)-8-((tetrahydrofuran-2-yl)methyl)pyrido[2,3-d]pyrimidin-7(8H)-one]",5.4 nM,36.6 nM
"Cc1nc(N)nc2c1cc(-c1cn[nH]c1)c(=O)n2C1CN(C(=O)OC(C)(C)C)C1 [Compound 226, tert-butyl 3-(2-amino-4-methyl-7-oxo-6-(1H-pyrazol-4-yl)pyrido[2,3-d]pyrimidin-8(7H)-yl)azetidine-1-carboxylate]",120 nM,41.5 nM
COc1ccc(-c2cc3c(C)nc(N)nc3n(C3CN(C(=O)OC(C)(C)C)C3)c2=O)cn1 [Compound 227],29 nM,318 nM
"Cc1nc(N)nc2c1cc(-c1cnc3[nH]ccc3c1)c(=O)n2C1CN(C(=O)OC(C)(C)C)C1 [Compound 228, tert-butyl 3-(2-amino-4-methyl-7-oxo-6-(1H pyrrolo[2,3-b]pyridin-5 yl)pyrido[2,3-d]pyrimidin-8(7H)-yl)azetidine-1-carboxylate]",38 nM,256 nM
"Cc1nc(N)nc2c1cc(-c1cnc(N)cn1)c(=O)n2C1CCCC1 [Compound 229, 2-amino-6-(5-aminopyrazin-2-yl)-8-cyclopentyl-4-methylpyrido[2,3-d]pyrimidin-7(8H)-one]",15 nM,17.9 nM
"Cc1nc(N)nc2c1cc(-c1cncc(N)n1)c(=O)n2C1CCCC1 [Compound 230, 2-amino-6-(6-aminopyrazin-2-yl)-8-cyclopentyl-4-methylpyrido[2,3-d]pyrimidin-7(8H)-one]",20 nM,33.9 nM
"Cc1nc(N)nc2c1cc(-c1cccc(Cl)n1)c(=O)n2C1CCCC1 [Compound 231, 2-Amino-6-(6-chloro-pyridin-2-yl)-8-cyclopentyl-4-methyl-8H-pyrido[2,3-d]pyrimidin-7-one]",170 nM,3450 nM
"CNc1nc(C)c2cc(-c3ccc(OC)nc3)c(=O)n(CCC3CC3)c2n1 [Compound 232, 8-(2-Cyclopropyl-ethyl)-6-(6-methoxy-pyridin-3-yl)-4-methyl-2-methylamino-8H-pyrido[2,3-d]pyrimidin-7-one]",8.9 nM,41.4 nM
"COc1ccc(-c2cc3c(C)nc(N)nc3n(CCC3CC3)c2=O)cn1 [Compound 233, 2-Amino-8-(2-cyclopropyl-ethyl)-6-(6-methoxy-pyridin-3-yl)-4-methyl-8H-pyrido[2,3-d]pyrimidin 7-one]",11 nM,94.2 nM
